Results as given in patent EP0674651B1, “SUBSTITUTED 6-AZAANDROSTENONES” (priority 1992, dated 1994).

Assays:
[1] = biological target: T1, human type 1 5α-reductase (Homo sapiens, UniProt P18405); assay: 5α-reductase in vitro inhibitory activity, human type 1
T1 sequence (P18405 1-259): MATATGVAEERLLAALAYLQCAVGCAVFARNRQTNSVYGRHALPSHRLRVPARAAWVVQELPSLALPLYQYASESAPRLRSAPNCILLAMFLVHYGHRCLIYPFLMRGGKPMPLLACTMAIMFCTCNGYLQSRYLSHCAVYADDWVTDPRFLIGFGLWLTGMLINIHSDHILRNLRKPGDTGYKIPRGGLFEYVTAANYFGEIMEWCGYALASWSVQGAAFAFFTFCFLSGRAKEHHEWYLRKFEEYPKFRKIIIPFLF
Method: (§1) Microsomes were prepared by homogenization of the tissue or cells, followed by differential centrifugation of the homogenate. […] Corresponding incubations were carried out with no test compound as a control study.
For type 2 IC50 measurements, assay components except testosterone were preincubated for 20 minutes at pH 6.0, and following the addition of 8nM testosterone the assays were allowed to proceed for 20-40 minutes. The percentage of conversion of testosterone to DHT in the presence of test compounds compared to the corresponding conversion in the control study was estimated using high pressure liquid chromatography (HPLC) with radiochemical detection.

[2] = biological target: T2, human type 2 5α-reductase (Homo sapiens, UniProt P31213); assay: 5α-reductase in vitro inhibitory activity, human type 2
T2 sequence (P31213 1-254): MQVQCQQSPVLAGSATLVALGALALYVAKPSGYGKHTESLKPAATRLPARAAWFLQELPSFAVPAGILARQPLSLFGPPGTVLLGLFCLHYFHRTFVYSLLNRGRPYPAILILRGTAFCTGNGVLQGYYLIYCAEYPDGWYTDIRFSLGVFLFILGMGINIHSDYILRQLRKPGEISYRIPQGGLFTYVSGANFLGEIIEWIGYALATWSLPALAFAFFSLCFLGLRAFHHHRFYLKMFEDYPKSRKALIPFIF
Method: as §1
The percentage of conversion of testosterone to DHT in the presence of test compounds compared to the corresponding conversion in the control study was estimated using high pressure liquid chromatography (HPLC) with radiochemical detection.

Row | Structure (SMILES) | IC50 [1] [nM] | IC50 [2] [nM]
1 | C[C@]12CC[C@H]3[C@@H](CNC4=CC(=O)CC[C@@]43C)[C@@H]1CC[C@@H]2C(=O)Nc1cc(C(F)(F)F)ccc1-c1ccccc1 [Compound 112, 17β-N-(2-Phenyl-5-trifluoromethyl)phenyl-carbamoyl-6-azaandrost-4-en-3-one] | 10 to 100 | < 10
2 | COc1cc(Cl)cc(NC(=O)[C@H]2CC[C@H]3[C@@H]4CNC5=CC(=O)CC[C@]5(C)[C@H]4CC[C@]23C)c1 [Compound 113, 17β-N-(3-Methoxy-5-chloro)phenyl-carbamoyl-6-azaandrost-4-en-3-one] | 10 to 100 | < 10
3 | CCOC(=O)c1ccccc1NC(=O)[C@H]1CC[C@H]2[C@@H]3CNC4=CC(=O)CC[C@]4(C)[C@H]3CC[C@]12C [Compound 114, 17β-N-(2-Carboethoxy)phenyl-carbamoyl-6-azaandrost-4-en-3-one] | 10 to 100 | < 10
4 | COc1ccc(C2(NC(=O)[C@H]3CC[C@H]4[C@@H]5CNC6=CC(=O)CC[C@]6(C)[C@H]5CC[C@]34C)CCCC2)cc1 [Compound 115, 17β-N-1-(4-Methoxyphenyl)cyclopentyl-carbamoyl-6-azaandrost-4-en-3-one] | < 10 | < 10
5 | CC1=C2NC[C@H]3[C@@H]4CC[C@H](C(=O)Nc5cc(C(F)(F)F)ccc5C(F)(F)F)[C@@]4(C)CC[C@@H]3[C@@]2(C)CCC1=O [Compound 116, 17β-N-(2,5-bis(Trifluoromethyl))phenyl-carbamoyl-6-azaandrost-4-methyl-4-en-3-one] | < 10 | < 10
6 | CC1=C2NC[C@H]3[C@@H]4CC[C@H](C(=O)Nc5cc(C(F)(F)F)ccc5C(C)(C)C)[C@@]4(C)CC[C@@H]3[C@@]2(C)CCC1=O [Compound 117, 17β-N-(2-t-Butyl-5-trifluoromethyl)phenyl-carbamoyl-6-azaandrost-4-methyl-4-en-3-one] | < 10 | < 10
7 | CC1=C2NC[C@H]3[C@@H]4CC[C@H](C(=O)Nc5cc(C(C)(C)C)ccc5C(C)(C)C)[C@@]4(C)CC[C@@H]3[C@@]2(C)CCC1=O [Compound 118, 17β-N-(2,5-Di-t-butyl)phenyl-carbamoyl-6-azaandrost-4-methyl-4-en-3-one] | < 10 | < 10
8 | CCOc1ccc(OCC)c(NC(=O)[C@H]2CC[C@H]3[C@@H]4CNC5=CC(=O)CC[C@]5(C)[C@H]4CC[C@]23C)c1 [Compound 119, 17β-N-(2,5-Diethoxy)phenyl-carbamoyl-6-azaandrost-4-en-3-one] | 10 to 100 | < 10
9 | CC(C)(C)c1ccc(-c2ccc(Cl)cc2)cc1NC(=O)[C@H]1CC[C@H]2[C@@H]3CNC4=CC(=O)CC[C@]4(C)[C@H]3CC[C@]12C [Compound 120, 17β-N-(2-t-Butyl-5-(4-chlorophenyl))phenyl-carbamoyl-6-azaandrost-4-en-3-one] | < 10 | < 10
10 | CC(C)(C)c1ccc(C2(NC(=O)[C@H]3CC[C@H]4[C@@H]5CNC6=CC(=O)CC[C@]6(C)[C@H]5CC[C@]34C)CCCC2)cc1 [Compound 121, 17β-N-1-(4-t-Butylphenyl)cyclopentyl-carbamoyl-6-azaandrost-4-en-3-one] | < 10 | < 10
11 | CC(C)(C)c1ccc(C2(NC(=O)[C@H]3CC[C@H]4[C@@H]5CNC6=CC(=O)CC[C@]6(C)[C@H]5CC[C@]34C)CCCCC2)cc1 [Compound 122, 17β-N-1-(4-t-Butylphenyl)cyclohexyl-carbamoyl-6-azaandrost-4-en-3-one] | < 10 | < 10
12 | C[C@]12CC[C@H]3[C@@H](CNC4=CC(=O)CC[C@@]43C)[C@@H]1CC[C@@H]2C(=O)Nc1ccccc1C(=O)c1ccccc1 [Compound 123, 17β-N-(2-Benzoyl)phenyl-carbamoyl-6-azaandrost-4-en-3-one] | 10 to 100 | < 10
13 | C[C@]12CC[C@H]3[C@@H](CNC4=CC(=O)CC[C@@]43C)[C@@H]1CC[C@@H]2C(=O)NC1(c2ccc3c(c2)OCO3)CCCCC1 [Compound 124, 17β-N-1-(3,4-Methylenedioxyphenyl)cyclohexyl-carbamoyl-6-azaandrost-4-en-3-one] | 10 to 100 | < 10
14 | CC1=C2NC[C@H]3[C@@H]4CC[C@H](C(=O)NC5(c6ccc(Cl)cc6)CCCC5)[C@@]4(C)CC[C@@H]3[C@@]2(C)CCC1=O [Compound 125, 17β-N-1-(4-Chlorophenyl)cyclopentyl-carbamovl-6-azaandrost-4-methyl-4-en-3-one] | < 10 | < 10
15 | C[C@]12CC[C@H]3[C@@H](CNC4=C(Cl)C(=O)CC[C@@]43C)[C@@H]1CC[C@@H]2C(=O)Nc1cc(C(F)(F)F)ccc1C(F)(F)F [Compound 126, 17β-N-(2,5-bis(Trifluoromethyl))phenyl-carbamoyl-6-azaandrost-4-chloro-4-en-3-one] | < 10 | < 10
16 | CC(C)(C)c1ccc(C(F)(F)F)cc1NC(=O)[C@H]1CC[C@H]2[C@@H]3CNC4=C(Cl)C(=O)CC[C@]4(C)[C@H]3CC[C@]12C [Compound 127, 17β-N-(2-t-Butyl-5-trifluoromethyl)phenyl-carbamoyl-6-azaandrost-4-chloro-4-en-3-one] | < 10 | < 10
17 | COc1ccc(C(C)(C)C)cc1NC(=O)[C@H]1CC[C@H]2[C@@H]3CNC4=CC(=O)CC[C@]4(C)[C@H]3CC[C@]12C [Compound 128, 17β-N-(2-Methoxy-5-t-butyl)phenyl-carbamoyl-6-azaandrost-4-en-3-one] | < 10 | < 10
18 | C[C@]12CC[C@H]3[C@@H](CNC4=CC(=O)CC[C@@]43C)[C@@H]1CC[C@@H]2C(=O)Nc1cc(C(F)(F)F)ccc1F [Compound 129] | 10 to 100 | < 10
19 | CCC1(CC)CC1(NC(=O)[C@H]1CC[C@H]2[C@@H]3CNC4=CC(=O)CC[C@]4(C)[C@H]3CC[C@]12C)c1ccc(-c2ccccc2)cc1 (stereo partly drawn) [Compound 130, 17β-N-(1-(4-Biphenyl)-2,2-diethyl)cyclopropyl-carbamoyl-6-azaandrost-4-en-3-one] | < 10 | < 10
20 | CCC1(CC)CC1(NC(=O)[C@H]1CC[C@H]2[C@@H]3CNC4=CC(=O)CC[C@]4(C)[C@H]3CC[C@]12C)c1ccc(C(F)(F)F)cc1 (stereo partly drawn) [Compound 131, 17β-N-(1-(4-Trifluoromethylphenyl)-2,2-diethyl)cyclopropyl-carbamoyl-6-azaandrost-4-en-3-one] | < 10 | < 10
21 | COC(=O)c1sc(C(C)(C)C)cc1NC(=O)[C@H]1CC[C@H]2[C@@H]3CNC4=CC(=O)CC[C@]4(C)[C@H]3CC[C@]12C [Compound 132, 17β-N-3-(2-Carbomethoxy-5-t-butyl)thiophenyl-carbamoyl-6-azaandrost-4-en-3-one] | 10 to 100 | < 10
22 | C[C@]12CC[C@H]3[C@@H](CNC4=CC(=O)CC[C@@]43C)[C@@H]1CC[C@@H]2C(=O)Nc1ccccc1S(=O)(=O)c1ccccc1 [Compound 133, 17β-N-(2-Phenylsulfonyl)phenyl-carbamoyl-6-azaandrost-4-en-3-one] | > 100 | < 10
23 | CCOC(=O)c1ccc(NC(=O)[C@H]2CC[C@H]3[C@@H]4CNC5=CC(=O)CC[C@]5(C)[C@H]4CC[C@]23C)cc1 [Compound 134, 17β-N-(4-Carboethoxy)phenyl-carbamoyl-6-azaandrost-4-en-3-one] | 10 to 100 | < 10
24 | CC(C)(C)c1ccc(-c2ccc(C(F)(F)F)cc2NC(=O)[C@H]2CC[C@H]3[C@@H]4CNC5=CC(=O)CC[C@]5(C)[C@H]4CC[C@]23C)cc1 [Compound 135] | > 100 | < 10
25 | CC(C)(C)c1ccc(C2(NC(=O)[C@H]3CC[C@H]4[C@@H]5CNC6=CC(=O)CC[C@]6(C)[C@H]5CC[C@]34C)CCCCCC2)cc1 [Compound 136, 17β-N-1-(4-t-Butylphenyl)cycloheptyl-carbamoyl-6-azaandrost-4-en-3-one] | < 10 | < 10
26 | C[C@]12CC[C@H]3[C@@H](CNC4=CC(=O)CC[C@@]43C)[C@@H]1CC[C@@H]2C(=O)Nc1cccc(C(=O)O)c1 [Compound 137, 17β-N-(3-Carboxy)phenyl-carbamoyl-6-azaandrost-4-en-3-one] | > 100 | < 10
27 | C[C@]12CC[C@H]3[C@@H](CNC4=CC(=O)CC[C@@]43C)[C@@H]1CC[C@@H]2C(=O)Nc1cccc2c1C(=O)c1ccccc1-2 [Compound 138, 17β-N-1-(9-Fluorenonyl)-carbamoyl-6-azaandrost-4-en-3-one] | 10 to 100 | < 10
28 | CC(C)(C)c1ccc(C2(NC(=O)[C@H]3CC[C@H]4[C@@H]5CNC6=C(Cl)C(=O)CC[C@]6(C)[C@H]5CC[C@]34C)CCCCC2)cc1 [Compound 139, 17β-N-1-(4-t-Butylphenyl)cyclohexyl-carbamoyl-6-azaandrost-4-chloro-4-en-3-one] | < 10 | < 10
29 | CCc1cc(-c2ccc(Cl)cc2)cc(CC)c1NC(=O)[C@H]1CC[C@H]2[C@@H]3CNC4=CC(=O)CC[C@]4(C)[C@H]3CC[C@]12C [Compound 140, 17β-N-(2,6-Diethyl-4-(4-chlorophenyl))phenyl-carbamoyl-6-azaandrost-4-en-3-one] | < 10 | < 10
30 | C[C@]12CC[C@H]3[C@@H](CNC4=CC(=O)CC[C@@]43C)[C@@H]1CC[C@@H]2C(=O)NNc1ccccc1 [Compound 141, 17β-N-(2-Phenyl)-hydrazidyl-carbamoyl-6-azaandrost-4-en-3-one] | > 100 | < 10
